Test results as given in publication PMC4814829, “Design, synthesis, crystallization and biological evaluation of new symmetrical biscationic compounds as selective inhibitors of human Choline Kinase α1 (ChoKα1)” (Scientific Reports, 2016).

How the values were obtained:
Human fibroblasts = assay: Antiproliferative assay in non-tumoral cells; assay type: cell-based; details: Fibroblast, mean ± SEM
Excerpt: Human fibroblasts from foreskin were isolated as previously described[58] and maintained in DMEM medium with 10% fetal bovine serum added.

[1] = system: panel of nine different human tumor-cell lines; assay: Antiproliferative activity against the panel of nine human tumor-cell lines; assay type: cell-based; details: Homo sapiens; range or bound over all tested cell lines; read-out: GI50 across the tumor-cell line panel
Method: Human T-cell leukemia (Jurkat), human B-cell leukemia (RS 4,11) and human promyelocytic leukemia (HL-60) cells were grown in RPMI-1640 medium (Gibco, Milan, Italy). Breast adenocarcinoma (MCF-7 and MDA-MB-231), human non-small cell lung carcinoma (A549), human cervix carcinoma (HeLa), human prostate adenocarcinoma (PC-3), and human colon adenocarcinoma (HT-29) cells were grown in DMEM medium (Gibco, Milan, Italy). Both media were supplemented with 115 units/mL of penicillin G (Gibco, Milan, Italy), 115 μg/mL of streptomycin (Invitrogen, Milan, Italy) and 10% fetal bovine serum (Invitrogen, Milan, Italy). Stock solutions (10 mM) of the different compounds were obtained by dissolving them in DMSO. Individual wells of 96-well tissue-culture microtiter plates were inoculated with 100 μL of complete medium containing 8 × 10^3 cells. The plates were incubated at 37 °C in a humidified 5% CO2 incubator for 18 h prior to the experiments. After medium removal, 100 μL of fresh medium containing the test compound at different concentrations was added to each well and incubated at 37 °C for 72 h. The percentage of DMSO in the medium in no case exceeded 0.25%.

Jurkat cells [2] = assay: Cell-cycle distribution analysis (PI, flow cytometry); assay type: cell-based, human
Method: (§1) For flow-cytometric analysis of the DNA content, 5 × 10^5 HeLa or Jurkat cells in exponential growth were treated with different concentrations of the test compounds for 24 and 48 h. After the incubation period, the cells were collected, centrifuged, and fixed with ice-cold ethanol (70%). The cells were then treated with lysis buffer containing RNAse A and 0.1% Triton X-100, and then stained with propidium iodide (PI). Samples were analyzed in a Cytomics FC500 flow cytometer (Beckman Coulter). DNA histograms were analyzed using MultiCycle for Windows (Phoenix Flow Systems).

MCF-7 cells [3] = assay: as above; assay type: cell-based, human
Method: [The source words this procedure for another cell line and reports this cell line under the same test.] as §1

MDA-MB-231 cells [4] = assay: as above; assay type: cell-based, human
Method: [The source words this procedure for another cell line and reports this cell line under the same test.] as §1

Jurkat cells [5] = assay: Annexin-V/PI assay; assay type: cell-based, human; details: 72 h, positive controls Cis-Pt 50 μM, Etoposide 5 μM
Method: (§2) Surface exposure of PS on apoptotic cells was measured by flow cytometry with Cytomics FC500 (Beckman Coulter) by adding simultaneously annexin-V conjugated to fluorescein isothiocyanate (FITC) and PI to cells according to the manufacturer′s instructions (Annexin-V Fluos, Roche Diagnostic).

MCF-7 cells [6] = assay: Annexin-V/PI assay; assay type: cell-based, human; details: MCF-7, 72 h; positive controls Cis-Pt 50 μM, Etoposide 5 μM
Method: as §2

MDA-MB-231 cells [7] = assay: Annexin-V/PI assay; assay type: cell-based, human; details: MDA-MB-231, 72 h; positive controls Cis-Pt 50 μM, Etoposide 5 μM
Method: as §2

- GI50 [1]: 27 to 120 nM
Structure (SMILES): CN(C)c1cc[n+](Cc2ccc(OCCOc3ccc(C[n+]4ccc(N(C)C)cc4)cc3)cc2)cc1.[Br-].[Br-] [Compound 10a, 1,1′-(((ethane-1,2-diylbis(oxy))bis(4,1-phenylene))bis(methylene))bis(4-(dimethylamino)pyridinium) bromide]
- GI50 (Human fibroblasts): 5800 ± 1300 nM
- Cells with hypodiploid DNA content (apoptotic cells by cell-cycle analysis) (Jurkat cells [2]): not detected
- Cell-cycle effect (G1 phase) (Jurkat cells [2]; 24 h, concentration-dependent): induced a G1 arrest of the cell cycle
- Cells with hypodiploid DNA content (apoptotic cells by cell-cycle analysis) (MCF-7 cells [3]; MCF-7): not detected
- Cell-cycle effect (G1 phase) (MCF-7 cells [3]; MCF-7, 24 h, concentration-dependent): induced a G1 arrest of the cell cycle
- Cells with hypodiploid DNA content (apoptotic cells by cell-cycle analysis) (MDA-MB-231 cells [4]; MDA-MB-231): not detected
- Cell-cycle effect (G1 phase) (MDA-MB-231 cells [4]; MDA-MB-231, 24 h, concentration-dependent): induced a G1 arrest of the cell cycle
- Apoptotic cells (annexin-V/PI) (Jurkat cells [5]): modest increment in apoptotic cells
- Apoptotic cells (annexin-V/PI) (MCF-7 cells [6]): not to be significantly different from that of the untreated cells
- Apoptotic cells (annexin-V/PI) (MDA-MB-231 cells [7]): not to be significantly different from that of the untreated cells
